We go through 21 compounds from PubChem BioAssay (NCI).

Holding throughout (assay): NCI anticancer screen, dose series, 48 h
Experiment [1] deals with ACHN renal.
The test system of experiment [2] is CAKI-1 renal.
Experiment [3] has as its system COLO 205 colon.
Experiment [4] relates to EKVX NSCLC.
Experiment [5] concerns HL-60(TB) leukemia.
Experiment [6] relates to KM12 colon.
Experiment [7] relates to MOLT-4 leukemia.
The subject of experiment [8] is OVCAR-4 ovarian.
Experiment [9] concerns RXF 393 renal.
For experiment [10], the system named is UO-31 renal.

The structures appear in SMILES notation.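 Briefly, cells in 96-well plates were exposed to five compound concentrations for 48 h, and endpoints were estimated by linear interpolation. GI50 = concentration required for 50% inhibition of growth. TGI denotes the concentration required for complete inhibition of growth.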

Consider `COC(=O)Nc1nc2ccc(S(=O)c3ccccc3)cc2[nH]1` (stereo unspecified), for which the GI50 was 7.59 µM in [1]; 4.99 µM in experiment [2]; 2.51 µM in [3]; 35 µM in [4]; 2.44 µM in experiment [5]; 4.48 µM in [6]. The GI50 is 5.86 µM in experiment [7], 7.73 µM in [8], 3.28 µM in [9] and 8 µM in [10]. Besides, the TGI is > 100 µM in experiment [1]; > 100 µM in experiment [2]; 7.78 µM in [3]; > 100 µM in experiment [4]; 6.5 µM in experiment [5]; > 100 µM in experiment [6]. The TGI in experiment [7] was > 100 µM; in experiment [8], > 100 µM; in experiment [9] it was 26.7 µM; in experiment [10], > 100 µM.

`COc1ccc(-c2cc(=O)c3ccc(O)cc3o2)c(OC)c1OC`: the TGI in [1], in experiment [2], in experiment [3], in experiment [4], in experiment [5] and in [6] was > 100 µM in each case. Moreover, the values for the TGI in [8] and in experiment [9] were > 100 µM and 91.8 µM, respectively.

For `O=C(CN1CCN(c2cc3c(cc2F)c(=O)c(C(=O)N/N=C/c2ccccc2O)cn3C2CC2)CC1)N/N=C\c1ccccc1O`, the GI50 was 0.351 µM in [1]; 1.1 µM in experiment [2]; 0.371 µM in experiment [3]; 1.11 µM in experiment [4]; 0.36 µM in experiment [5]; 0.462 µM in experiment [6]. The GI50 in experiment [7] is 0.267 µM; in experiment [8], 0.204 µM; in [9] it was 1.32 µM; in [10] it was 0.359 µM. The TGI in [1], in [2], in experiment [3], in [4], in experiment [6] and in experiment [7] was > 100 µM throughout. Also, the TGI in experiment [8], in [9] and in experiment [10] was > 100 µM throughout.

Take `CSc1ccc(/C=C2\CN(C)C/C(=C\c3ccc(SC)cc3)C2=O)cc1`: the TGI is > 100 µM in experiment [1]; > 100 µM in experiment [2]; 61.6 µM in [3]; > 100 µM in experiment [4]; > 100 µM in [5]; 44.8 µM in experiment [6]. The TGI in experiment [7], in experiment [8], in experiment [9] and in experiment [10] was > 100 µM throughout.

For the compound `CN(C)c1ccc(-c2cc(-c3ccc(Nc4nc(Nc5ccc(Cl)cc5)nc(Nc5ccc(Cl)cc5)n4)cc3)no2)cc1`, the GI50 in experiment [1] was 7.9 µM; in experiment [2], 2.8 µM; in experiment [3] it was 2.89 µM; in experiment [4], 10.5 µM; in experiment [5] it was 2.01 µM; in experiment [6] it was 4.11 µM. Besides, the GI50 in experiment [7] is 1.32 µM; in experiment [8], 7.19 µM; in experiment [9], 2.76 µM; in [10] it was 2.69 µM. For the same compound, the TGI is > 100 µM in [1]; > 100 µM in experiment [2]; 16 µM in experiment [3]; > 100 µM in [4]; 4.73 µM in experiment [5]; 25.3 µM in experiment [6]. The TGI in [7] is 3.38 µM; in [8] it was > 100 µM; in experiment [9], 6.04 µM; in experiment [10] it was 17.7 µM.

With `Fc1ccc(Nc2ncnc3ccc(-c4cnc5[nH]ccc5c4)cc23)cc1Cl`, the GI50 in [1] is 0.602 µM; in experiment [2], 0.502 µM; in experiment [3], 3.58 µM; in experiment [4] it was 0.769 µM; in [5] it was 7.76 µM; in experiment [6], 4.71 µM. Further, the GI50 in experiment [7] is > 20.8 µM; in [8] it was 1.51 µM; in experiment [9], 1.53 µM; in [10], 0.6 µM. In addition, the TGI in experiment [1] was 2.49 µM; in experiment [2], 19.5 µM; in [3], 46.3 µM; in experiment [4], > 100 µM; in experiment [5], 40.1 µM; in experiment [6], > 100 µM. Further, the TGI in [7] was > 100 µM; in experiment [8], 3.92 µM; in experiment [9], 6.27 µM; in experiment [10], 2.38 µM.

In the case of `c1cc2c(cc1NC1=NCCO1)CCC2`, the TGI in experiment [3], in experiment [4], in experiment [5], in experiment [6], in [7] and in [8] was > 10 µM in each case. Also, the TGI in experiment [9] is > 10 µM.

On to `NC(CSC(c1ccccc1)(c1ccccc1)c1ccc2c(c1)OCO2)C(=O)O` (stereo unspecified), for which the GI50 in [1] is 4.06 µM; in experiment [2] it was 5.14 µM; in [3], 0.325 µM; in experiment [4] it was 0.625 µM; in experiment [5], 0.313 µM; in [6], 0.605 µM. The GI50 was 0.631 µM in [7], 7.81 µM in experiment [8], 0.499 µM in [9] and 9.6 µM in experiment [10]. In addition, the TGI is > 100 µM in experiment [1]; > 100 µM in experiment [2]; 1.15 µM in experiment [3]; 79.4 µM in experiment [4]; 0.836 µM in experiment [5]; > 100 µM in experiment [6]. The TGI in experiment [7] is 17 µM; in experiment [8] it was > 81.6 µM; in experiment [9], 54.1 µM; in experiment [10] it was > 100 µM.

In the case of `CCOC(=O)C(Sc1ccccc1)c1c(OC)cc(=O)oc1/C=[N+](/[O-])c1ccc(N(C)C)cc1` (stereo unspecified), the TGI in [2] is 32.1 µM; in experiment [3], 45.4 µM; in experiment [4] it was > 100 µM; in experiment [6], 47.4 µM; in experiment [7], 37.9 µM; in [8], 51.6 µM. Further, the TGI in experiment [9] was 32.5 µM; in experiment [10], 41.9 µM.

For the compound `CC1=C(C(=O)Nc2ccccc2C)C(c2ccco2)C(C(=O)Nc2ccccc2C)=C(C)N1C`, the TGI in experiment [1], in experiment [2], in experiment [4], in experiment [5], in [6] and in experiment [7] was > 100 µM each time. In addition, the TGI in experiment [8], in experiment [9] and in [10] was > 100 µM each time.

As to `CC(=O)NC1=C(NCC(C)(C)C)C(=O)c2ccccc2C1=O`, the TGI is 74.5 µM in experiment [1]; > 100 µM in experiment [3]; > 100 µM in [4]; > 100 µM in [5]; > 100 µM in experiment [6]; > 100 µM in experiment [7]. For the same compound, the TGI in [8], in experiment [9] and in experiment [10] was > 100 µM each time.

In the case of `Nc1ccc(C(=O)N/C(=C\c2ccc3c(c2)OCO3)c2nc3[nH]c(=S)[nH]c(=O)c3[nH]2)cc1`, the TGI in experiment [1], in experiment [2], in experiment [3], in [4], in experiment [6] and in experiment [7] was > 100 µM throughout. Besides, the TGI in [8], in experiment [9] and in experiment [10] was > 100 µM in each case.

Regarding `CCc1ccc2c(c1)C(=O)c1c-2n(CCCBr)c(=O)c2cc([N+](=O)[O-])ccc12`, the GI50 in experiment [1], in [2], in [3], in [4], in experiment [5] and in [6] was > 50 µM each time. For the same compound, the GI50 in [8] was 48.1 µM; in experiment [9], 21.8 µM; in experiment [10], > 50 µM. Moreover, the TGI in experiment [1], in experiment [2], in experiment [3], in experiment [4], in experiment [5] and in [6] was > 50 µM throughout. The TGI in [8], in experiment [9] and in experiment [10] was > 50 µM each time.

For `COc1ccc(C2=CSc3cc(Cl)c(C)cc3S(=O)(=O)N2C(C)=O)cc1`, the GI50 in [1] is 18.8 µM; in experiment [2] it was 11.5 µM; in experiment [3], 38.5 µM; in [4], 38.2 µM; in experiment [5], 17.2 µM; in experiment [6], 23.1 µM. Besides, the GI50 in experiment [7] is 2.13 µM; in experiment [9], 35.6 µM; in experiment [10], 51.2 µM. Besides, the TGI in experiment [1] was 43.7 µM; in experiment [2] it was 32.9 µM; in experiment [3] it was > 100 µM; in experiment [4], > 100 µM; in experiment [5], 43.7 µM; in experiment [6], 92.2 µM. The TGI in experiment [7], in experiment [9] and in [10] was > 100 µM each time.

In the case of `COc1ccc2nc3cc(Cl)ccc3c(Sc3ccccc3[N+](=O)[O-])c2c1`, the TGI in [1] was > 100 µM; in experiment [2], > 100 µM; in experiment [3], 37.7 µM; in experiment [4], > 100 µM; in experiment [6] it was > 100 µM; in experiment [7], > 100 µM. In addition, the TGI is > 100 µM in [8], 93.2 µM in experiment [9] and > 100 µM in experiment [10].

With `CNC(=O)c1ccccc1Nc1nc(Nc2ccc(N3CCOCC3)cc2OC)ncc1Cl`, the GI50 in [2] is 0.165 µM; in experiment [3], 0.103 µM; in experiment [4] it was 0.274 µM; in experiment [5], 0.206 µM; in [6], 0.298 µM; in experiment [7] it was 1.85 µM. The GI50 was 1.95 µM in [8], 0.797 µM in experiment [9] and 0.4 µM in [10]. Further, the TGI in [2] is 1.58 µM; in experiment [3] it was 0.59 µM; in experiment [4], > 24.7 µM; in experiment [5] it was > 57.1 µM; in experiment [6], 8.52 µM; in experiment [7], > 63.7 µM. Also, the TGI is > 47.1 µM in experiment [8], 3.31 µM in [9] and 4.44 µM in experiment [10].

As for `CC(=O)OC1COC(n2c(=S)n(-c3ccc(C)cc3)c(=O)c3ccccc32)C(OC(C)=O)C1OC(C)=O` (stereo unspecified), the TGI in [1], in experiment [2], in experiment [3], in experiment [4], in experiment [6] and in experiment [7] was > 100 µM in each case. In addition, the TGI in experiment [8], in experiment [9] and in experiment [10] was > 100 µM in each case.

With `CC1=C(C#N)C23C(=O)c4ccccc4C(O)=C2C(=O)C=CC3(O)N1Cc1ccccc1` (stereo unspecified), the GI50 is 29.4 µM in [1]; 43.2 µM in experiment [2]; 16.6 µM in experiment [3]; 43.6 µM in experiment [4]; 37.8 µM in experiment [5]; 42.4 µM in experiment [6]. The values for the GI50 in experiment [8], in experiment [9] and in experiment [10] were 38.6 µM, 26 µM and 18 µM, respectively. Also, the TGI in [1] was > 100 µM; in experiment [2], > 100 µM; in experiment [3], 34.4 µM; in experiment [4], > 100 µM; in [5], > 100 µM; in experiment [6], > 100 µM. The TGI in [8], in experiment [9] and in [10] was > 100 µM each time.

Regarding `O=C(O)c1cc(C(=O)O)cc(N2C(=O)c3ccccc3C2=O)c1`, the TGI in experiment [1], in [2], in [3], in experiment [4], in experiment [5] and in experiment [6] was > 100 µM throughout. Moreover, the TGI in experiment [8], in experiment [9] and in experiment [10] was > 100 µM each time.

With `CC(=O)OC(C)C(=O)C1c2cccc(O)c2C(=O)c2c(O)cc(C)cc21` (stereo unspecified), the TGI in experiment [1] was determined as 1.85 µM; in experiment [3], 3.01 µM; in [4], 4.09 µM; in experiment [5], 0.847 µM; in [6], 1.23 µM; in experiment [7] it was 8.17 µM. In addition, the TGI came to 1.56 µM in [8], 0.813 µM in experiment [9] and 0.744 µM in [10].

For `CCNC1C2(CCCCC2)NC(=O)C12CCCCC2` (stereo unspecified), the TGI in experiment [1], in experiment [2], in [4], in [5], in [6] and in [7] was > 100 µM throughout. Also, the TGI in experiment [8], in experiment [9] and in experiment [10] was > 100 µM in each case.
